Assay results as given in patent US20070099877A1, “N-aryl-thienopyrimidin-4-amines and analogs as activators of caspases and inducers of apoptosis and the use thereof” (Cytovia, Inc., priority 2005, published 2007).
Where a name gives a salt, the structure may show the parent alone. Read-outs that look alike come from different tables or passages of the source.

Columns and labels:
Assay type in all cases: cell-based
[1] = test system: human hepatocellular carcinoma cell line SNU398; test: Caspase cascade activation in SNU398 cells; details: Homo sapiens, SNU-398, 48 h, read-out: Caspase activation Potency EC50 SNU398 (48 h)
Method in brief: (§1)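 Cells were exposed to compound at 0.016 to 10 μM final for 24 h or 48 h at 37 °C. They were then lysed with 14 μM N-(Ac-DEVD)-N′-ethoxycarbonyl-R110 in lysolecithin/DTT/PIPES buffer pH 7.2 for 3 h at room temperature (ex 485/em 530 nm). EC50 came from a sigmoidal fit of net RFU relative to untreated control.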

[2] = test system: human colon carcinoma cell line HCT116; test: Caspase cascade activation in HCT116 cells; details: Homo sapiens, HCT-116, 48 h, read-out: Caspase activation Potency EC50 HCT116 (48 h)
Method in brief: as §1

[3] = test system: human breast cancer cell line T-47D; test: Inhibition of cell proliferation (GI50, CellTiter-Glo) in T-47D cells; details: T47D cells
Protocol: (§2) Human breast cancer cell lines T-47D, MX-1 and MDAMB435, human colon cancer cell line HT29, and human lung cancer cell line H1299 were grown and harvested as in Example 75. An aliquot of […] of cells (4.4×10^4 cells/mL) was added to a well of a 96-well microtiter plate containing 5 μL of a 10% DMSO in RPMI-1640 media solution containing 10 nM to 100 μM of N-(2,5-dimethoxyphenyl)-2-methylthieno[3,2-d]pyrimidin-4-amine (1 nM to 10 μM final). An aliquot of 45 μL of cells was added to a well of a 96-well microtiter plate containing 5 μL of a 10% DMSO in RPMI-1640 media solution without compound as the control sample for maximal cell proliferation (Lmax). The samples were mixed by agitation and then incubated at 37° C. for 48 h in a 5% CO2-95% humidity incubator. After incubation, the samples were removed from the incubator and 25 μL of CellTiter-Glo™ reagent (Promega) was added. The samples were mixed by agitation and incubated at room temperature for 10-15 min. Plates were then read using a luminescent plate reader (Model SPECTRAfluor Plus, Tecan) to give Ltest values.
(§3) Baseline for GI50 (dose for 50% inhibition of cell proliferation) of initial cell numbers was determined by adding an aliquot of 45 μL of cells or 45 μL of media, respectively, to wells of a 96-well microtiter plate containing 5 μL of a 10% DMSO in RPMI-1640 media solution. The samples were mixed by agitation and then incubated at 37° C. for 0.5 h in a 5% CO2-95% humidity incubator. After incubation, the samples were removed from the incubator and 25 μL of CellTiter-Glo™ reagent (Promega) was added. The samples were mixed by agitation and incubated at 37° C. for 10-15 min at room temperature in a 5% CO2-95% humidity incubator. Fluorescence was read as above, (LStart) defining luminescence for initial cell number used as baseline in GI50 determinations.
(§4) GI50 (dose for 50% inhibition of cell proliferation) is the concentration where [(LTest−Lstart)/(LMax−Lstart)]=0.5.

[4] = test system: human hepatocellular carcinoma cell line SNU398; test: Inhibition of cell proliferation (GI50) in SNU398 cells; details: SNU-398, Table IV, read-out: GI50 in Multi-Cancer Cells SNU398
Protocol: as §2, §3, §4
(§5) Several compounds were tested in multi cancer cell lines, including human breast cancer cell lines T-47D, MX-1, SKBR3 and MDAMB435, human hepatocellular carcinoma cell line SNU398, human colon carcinoma cell line HCT116, human sarcoma cell line MES-SA and multi-drug resistant (MDR) human sarcoma cell line MES-SA/ADR, murine leukemia cell line P388 and multi-drug resistant (MDR) murine leukemia cell line P388ADR, and the data are summarized in Table IV.

[5] = test system: human colon carcinoma cell line HCT116; test: Inhibition of cell proliferation (GI50) in HCT116 cells; details: HCT-116, Table IV, read-out: GI50 in Multi-Cancer Cells HCT116
Protocol: as §2, §3, §4, §5

[6] = test system: human breast cancer cell line SKBR3; test: Inhibition of cell proliferation (GI50) in SKBR3 cells; details: SK-BR-3, Table IV, read-out: GI50 in Multi-Cancer Cells SKBR3
Protocol: as §2, §3, §4, §5

[7] = test system: human sarcoma cell line MES-SA; test: Inhibition of cell proliferation (GI50) in MES-SA cells; details: Table IV, read-out: GI50 in Multi-Cancer Cells MES-SA
Protocol: as §2, §3, §4, §5

[8] = test system: multi-drug resistant (MDR) human sarcoma cell line MES-SA/ADR; test: Inhibition of cell proliferation (GI50) in MES-SA/ADR cells; details: Table IV, read-out: GI50 in Multi-Cancer Cells MES-SA/ADR
Protocol: as §2, §3, §4, §5

[9] = test system: murine leukemia cell line P388; test: Inhibition of cell proliferation (GI50) in P388 cells; details: Mus musculus, Table IV, read-out: GI50 in Multi-Cancer Cells P388
Protocol: as §2, §3, §4, §5

[10] = Table IV, read-out: GI50 in Multi-Cancer Cells T47D

Structure (SMILES): COc1cc(Nc2ncnc3ccsc23)cc(OC)c1 [Example 12, N-(3,5-Dimethoxyphenyl)thieno[3,2-d]pyrimidin-4-amine hydrochloride]
- EC50 [1]: 249 nM
- EC50 [2]: 279 nM
- GI50 [3, 10]: 20 nM
- GI50 [4]: 706 nM
- GI50 [5]: 1250 nM
- GI50 [6]: 60 nM
- GI50 [7]: 364 nM
- GI50 [8]: 1200 nM
- GI50 [9]: 540 nM

Structure (SMILES): COc1ccc(OC)c(Nc2ncnc3ccsc23)c1 [Example 2, N-(2,5-Dimethoxyphenyl)thieno[3,2-d]pyrimidin-4-amine]
- EC50 [1]: 1610 nM
- EC50 [2]: 5000 nM
- GI50 ([3]; Table III, 48 h, read-out: GI50 in Cancer Cells T47D): 65 nM
- GI50 [3, 10]: 340 nM
- GI50 [4]: 2100 nM
- GI50 [5]: 4980 nM
- GI50 [6]: 500 nM
- GI50 [7]: 5190 nM
- GI50 [8]: 7260 nM
- GI50 [9]: 2060 nM
